Patent US5461057A, “Hydro-ethano-indeno-pyridines” (priority 1994, dated 1995)

Columns and labels:
[1] = tested on: LOX human melanoma cell adhesion to human fibronectin; test: LOX melanoma cell adhesion to fibronectin; assay type: cell-based; settings: Homo sapiens, LOX; for inhibition at 10 µM: read-out: % Inhibition at 10 μM; for inhibition at 50 µM: read-out: % Inhibition at 50 μM; for IC50: Table 4, 1 hour adhesion, read-out: LOX FN IC50
Description: (§1) Adhesion assays were run essentially as described previously (Pai et al., J. Biomed. Res. 2: 53, 1992). 96-well plates were coated with human fibronectin (140 ng/well), human vitronectin (75 ng/well), human collagen I (100 ng/well), human collagen IV (100 ng/well), human fibrinogen (1 μg/well), murine laminin (600 ng/well), or polylysine, and incubated overnight in a humidified 37° C. incubator. Excess fibronectin or other substrate was then removed and 0.2 ml of 2 mg/ml bovine serum albumin (BSA)in Dulbecco's phosphate-buffered saline (DPBS) was added to each well, incubated for 2 hours at 37° C., and removed. LOX human melanoma cells, M27 murine lung carcinoma cells or B16F10 mouse melanoma cells were detached from tissue culture flasks with RPMI medium containing 0.2M urea and 10 mM EDTA, and 0.18 ml of cells were added to each well to a final cell concentration of 1×10^5 cells/well. For inhibition studies 20 μl of 10× compound was added to the wells prior to cell addition. Cells were allowed to adhere for 1 hour at 37° C. The wells were then gently washed twice with 0.2 ml DPBS. The fluorescent dye calcein AM (Molecular Probes, Eugene Oreg.) in DPBS (0.1 ml of 1 μM) was added to each well, and the plates were incubated for 1 hour at room temperature. Adherent cells were quantitated by reading the fluorescence on a Cytofluor 2300 fluorescent plate reader (Millipore) at 485 nm excitation and 530 nm emission.
LOX FN-IC50 value for inhibition of adhesion of LOX human melanoma cells to fibronectin coated on a plastic surface.

[2] = tested on: histamine-induced dyspnea; test: Bronchodilator (in vivo) Guinea Pig Dyspnea; settings: oral; for responders at 50 mg/kg / responders at 100 mg/kg: Cavia porcellus, 1 h, read-out: DYSP survivors (converted)
Description: Unanesthetized guinea pigs (250-350 g), fasted overnight were placed in individual closed aerosol chambers which were connected to a Monoghan Ultrasonic nebulizer. The nebulizer can deliver an ultrasonic fog of uniform particles in a range of 1-8 microns. A 0.1% solution of histamine is aerosolized into the chambers causing the guinea pigs to develop dyspnea. The test drug was given orally one hour before the histamine challenge and the onset of dyspnea was recorded. Saline control animals developed dyspnea within 90-120 seconds of aerosol exposure. […] The data was expressed as the number tested over the number survived. The model was sensitive to bronchodilator and H1 antihistamine activity. Further information relating this test can be obtained from the following two publications which are hereby incorporated by reference: Dungan, K. W. and Lish, P. M. J Allergy 32:139-151 (1961). and Lish, P. M., Robbins, S. I. and Petres E. L. J. Pharmacol. Exp. Therap. 153 L 1538 (1966 ).

[3] = tested on: pulmonary resistance; test: Pulmonary Resistance in the Anesthetized Rat; assay type: in vivo; settings: 0.5 mpk, i.v., mean of 5 animals, % decrease in pre-drug baseline resistance; for inhibition in vivo at 0.5 mg/kg: Rattus norvegicus, iv, read-out: Pulmonary Resistance in Rats, % Inhibition
Description: Rats (400-500 g) anesthetized with dialurethane were surgically prepared with tracheal and esophageal catheters. These catheters were connected to pressure transducers for recording of air flow, tracheal and esophageal pressures. These pressures formed the basis for measurement of pulmonary resistance. Inhibition of pulmonary resistance is a reflection of bronchodilation.
All compounds were tested i. v. in 5 separate animals. All data are expressed in % decrease in the pre-drug baseline resistance and each number given is the mean of the 5 animals tested.
The model is sensitive to bronchodilator activity.
Further information relating this test can be obtained from the following publications which are hereby incorporated by reference: Comroe et al, J. Appl. Physio. 4:439-44 (1959); Dungan et al J. Pharmacol. Exp. Therap. 164:290-301(1968); and Mead, J. et al. J. Appl. Physio. 5:779-796 (1953).

[4] = tested on: TBZ-induced ptosis; test: Effects on tetrabenazine (TBZ)-induced ptosis in mice; assay type: in vivo, mouse; settings: Mus musculus, po
From the text: Clinically active antidepressant drugs are known to block TBZ-induced ptosis in mice (See Psychosomatic Medicine, Nodine and Moyer, Eds. Lea and Febiger, Philadelphia, 1962, pp 683-90, which is hereby incorporated by reference). Activity in this test is used to predict anti-depressant activity in man.
The procedure for the TBZ-Induced Ptosis Test in Mice is set forth in Psychosomatic Medicine, Nodine and Moyer, Eds. Lea and Febiger, which is hereby incorporated by reference and in PCT/US91/06705, filed 20 Sep. 1991, which is mentioned above.
(§2) The results for this test are given below as ED50 's in the units of mg/kg.
TBZ refers to the test of effects on tetrabenazine induced ptosis in mice, p.o.;

[5] = tested on: acetic acid-induced writhing; test: Acetic Acid Writhing Test in Mice; assay type: in vivo, mouse; settings: Mus musculus, po, read-out: WRITH ED50
From the text: The blockade of writhing induced by the intraperitoneal injection of acetic acid is an established experimental animal model for the screening of antinociceptive drugs (drugs which prevent the appreciation or transmission of pain sensations).
The procedure for the Acetic Acid Writhing Test in Mice is set forth in Hendershot et al, J. Pharmacol. Exp. Therap. 125:237, (1959); Koster et al., Fed. Proc. 18:412, (1959); and international application PCT/US91/06705, filed 20 Sep. 1991, which are hereby incorporated by reference.
The results for this test are given below in the units of mg/kg which is also abbreviated in this specification as mpk. The results for this test are given as effective doses (ED50 's).

[6] = tested on: muricidal (mouse-killing) behavior; test: Effects on muricidal behavior in rats; assay type: in vivo, rat; settings: Rattus norvegicus, read-out: MUR ED50
From the text: Blockade of muricidal (mouse-killing) behavior in rats is used as a measure of evaluating the anti-depressant activity of drugs, and the procedure for carrying out this test is set forth in Int. J. Neuro-pharmacal., 5, 405-411 (1966) are hereby incorporated by reference, and in PCT/US91/06705, filed 20 Sep. 1991, which is mentioned above.
as §2
MUR refers to the test on the effects on muricidal behavior in rats;

[7] = Calcein cytotoxicity assay; assay type: cell-based; settings: human, lox melanoma cells; 2 hours, calcein AM assay; read-out: 2 Hr Tox LD50
Description: LOX human melanoma cells were detached from tissue culture flasks with RPMI medium containing 0.2M urea and 10 mM EDTA, and 0.18 ml of cells were added to each well to a final cell concentration of 5×10^4 cells/well. 20 μl of 10× compound was added to the wells prior to cell addition. Cells were incubated with the compound at 37° C. for 1 hour or 5 hour as indicated. Calcein AM in DPBS (0.02 ml of 5 μM) was added to each well, and the plates were incubated for an additional 1 hour at room temperature. Viable cells were quantitated by reading the fluorescence on a Cytofluor 2300 fluorescent plate reader at 485 nm excitation and 530 nm emission.

[8] = tested on: LOX human melanoma cell adhesion to polylysine; test: LOX melanoma cell adhesion to polylysine; assay type: cell-based; settings: read-out: Poly Lys IC50
Description: as §1

[9] = tested on: metrazole; test: Anti-metrazole test in mice; assay type: in vivo, mouse; settings: Mus musculus, read-out: MTZ ED50
Description: The anti-metrazole test in mice was carried out as described in Everett et al, J. Pharmacol. Exp. Therap. 81:402-407 (1944); which is hereby incorporated by reference.
(§3) The results for this test are given below as ED50's in the units of mg/kg.

[10] = tested on: methamphetamine toxicity; test: Methamphetamine toxicity test in mice; assay type: in vivo; settings: Mus musculus, read-out: METHA ED50
Description: The methamphetamine toxicity test in mice was carried out as described in Burn et al, Arch. Int. Pharmacodyn 113:290-295, (1958); and Coscia et al, Arzneim-Forsch (Drug Research) 25:1436-1442, (1975); which are hereby incorporated by reference.
as §3
METHA refers to the methamphetamine toxicity test in mice;

[11] = 50 mg/kg, one hour before histamine challenge
[12] = 100 mg/kg, one hour before histamine challenge

Structure (SMILES)	inhibition at 10 µM [1]	inhibition at 50 µM [1]	IC50 [1]	responders at 50 mg/kg [2, 11]	responders at 100 mg/kg [2, 12]	inhibition in vivo at 0.5 mg/kg [3]	ED50 [4]	ED50 [5]	ED50 [6]	CC50 at 2 h [7]	IC50 [8]	ED50 [9]	ED50 [10]	DYSP survivors ([2]; dose not given)	DYSP survivors [2, 12]	Pulmonary Resistance in Rats, % Inhibition [3]	DYSP survivors ([2]; 10 mg/kg, one hour before histamine challenge)	DYSP survivors ([2]; 20 mg/kg, one hour before histamine challenge)	DYSP survivors [2, 11]
CN1C2CCC1C1c3ccccc3C(O)(c3ccc(F)cc3)C1C2 (stereo not drawn) [SS]	10.1%	17.3%	> 50 µM	33.3%	100%	22%	> 30 mg/kg	> 30 mg/kg	> 10 mg/kg	> 250 µM	> 250 µM	> 30 mg/kg	> 30 mg/kg						
COc1ccc(C2C3=C(c4ccccc42)C2CCC(C3)N2C)cc1 (stereo not drawn) [Y]	-1.2%	98.2%	21.6 µM				0.35 mg/kg		> 20 mg/kg	63.6 µM	105 µM		> 30 mg/kg	2/3					
c1ccc(C2=C3CC4CCC(N4)C3c3ccccc32)cc1 (stereo not drawn) [Q]	0.1%	97.1%	19.1 µM				3.6 mg/kg	> 30 mg/kg	> 10 mg/kg	66.7 µM	83.6 µM	> 30 mg/kg			0/3	24%			
CN1C2CCC1C1c3ccccc3C(O)(c3ccccc3)C1C2 (stereo not drawn) [AAA]	5.2%	5.8%		0%		35%	> 30 mg/kg	> 30 mg/kg	> 10 mg/kg			> 30 mg/kg	> 30 mg/kg						
COc1ccc(C2C3=C(c4ccccc42)C2CCC(C3)N2)cc1 (stereo not drawn) [Compound X]	20.8%	99.7%	15 µM				17.3 mg/kg	> 30 mg/kg	> 30 mg/kg	67.7 µM	121 µM		> 60 mg/kg						
CN1C2CCC1C1=C(C2)C(c2ccc(F)cc2)c2ccccc21 (stereo not drawn) [W]	36.3%	100%	17.4 µM				> 30 mg/kg	10.7 mg/kg		103 µM	78.3 µM	> 30 mg/kg	8.9 mg/kg		3/3	21%	1/3	2/3	2/3
COc1ccc(C2C3=C(c4ccccc42)C2CCC(C3)N2C)cc1OC (stereo not drawn) [AA]	-30%	23.6%					> 30 mg/kg	22.8 mg/kg	> 10 mg/kg			> 30 mg/kg	> 30 mg/kg		0/3	6%			
CN1C2CCC1C1c3ccccc3C(c3ccccc3)C1C2 (stereo not drawn) [MM]	-1.8%	25.8%		0%	66.7%	9%	9.3 mg/kg		> 10 mg/kg										
